Molecules are shown by their SMILES.

Holding throughout (format): in vivo
The test system of experiment [1] is Type 2 diabetes model db/db mice. As to the kind of experiment: Nateglinide load test after repeated dosing in db/db mice (Example IV). Conditions: for Blood glucose level 30 minutes after loading / Blood glucose level 120 minutes after loading / Blood glucose level before loading: db/db mice, compound successively dosed 80 mg/kg p.o. twice daily, day 25, Mean ± SD, N = 5; for Blood glucose level 30 minutes after loading / Blood glucose level 120 minutes after loading: loading with glucose 1 g/kg and nateglinide 50 mg/kg p.o.; for Blood glucose level before loading: starved 17 hours, nateglinide load test. How it is done:
Type 2 diabetes model db/db mice (age 6 weeks) were fed and kept with a feed twice daily over one hour starting 9 am and one hour starting 3 pm, for one week. Then, the mice were divided into groups with matched blood glucose levels and body weights. Subsequently, the inhibitor B of renal glucose reabsorption at 80 mg/kg or nateglinide at 80 mg/kg was orally given, immediately before feeding twice daily. Only a vehicle was orally given immediately before feeding twice daily to the animals of a control group. On day 25 from the start of administration, the mice of the individual experimental groups were starved for 17 hours and then orally given glucose (1 g/kg) and nateglinide (50 mg/kg). Blood glucose levels were measured before and after the administration, to examine whether or not the hypoglycemic action of nateglinide could be observed (nateglinide load test).

Experiment [2] deals with glucose-loaded rats. Put plainly: Blood glucose time course after oral glucose loading in rats (Example I). Conditions: Wistar rats, glucose 1 g/kg p.o. How it is done: Wistar rats (age of 7 weeks; male) were divided into groups with matched body weights. After 17-hour starvation, glucose was orally given at 1 g/kg to the animals. Immediately after the administration, the inhibitor A of renal glucose reabsorption or the inhibitor B of renal glucose reabsorption (A at 30 mg/kg or 60 mg/kg; B at 30 mg/kg or 80 mg/kg) or glibenclamide (1 mg/kg or 2 mg/kg) or nateglinide (50 mg/kg or 80 mg/kg) was orally given. Additionally, a group on the combined use of both of an inhibitor of renal glucose reabsorption and a hypoglycemic agent was also prepared. A vehicle was orally given to a control group after glucose administration.
Blood glucose was measured in a time course.

The test system of experiment [3] is Male Wistar rats. Put plainly: Assessment of excretion action of urine sugar in rat (Test Example 2A). As to conditions: urine collected 24 hours. How it is done: Male Wistar rats aged 5 weeks (purchased from Charles River Japan, Inc.) were acclimatized in metabolic cages for one week, for use at this experiment. The test compounds suspended in olive oil were dosed at 5 ml per 1 kg rat body weight.
After the rats were starved for 4 hours, the test compounds were orally given to the rats at 11 am. Immediately after dosing until 24 hours later, urine was collected. The volume of urine was measured. Then, urine sugar concentration was assayed by glucose oxidase method, to calculate the glucose excretion into urine per individual per day.

The test system of experiment [4] is Type 2 diabetic model GK rats. As to the kind of experiment: Blood glucose after repeated once daily dosing in GK rats (Example III). Conditions: once daily p.o., vs vehicle-dosed group (Fig. 4). On the procedure:
These agents were orally given once daily at the same time period as in the group administered with a single one agent. Only a vehicle was given orally to a control group. On day 25 after the start of administration, blood glucose was assayed sequentially, to compare the groups in terms of the resulting blood glucose levels.

For experiment [5], the system named is Male Wistar rats. Put plainly: Assessment of excretion action of urine sugar in rat (Test Example 1B). As to conditions: Oral Administration in Rat (24 hours). How it is done: Male Wistar rats aged 5 weeks (purchased from Charles River Japan, Inc.) were acclimatized in metabolic cages for one week, for use at this experiment. The test compounds suspended in olive oil were prepared into solutions to a dose of 5 ml per 1 kg rat body weight. After the rats were starved for 4 hours, the test compounds were orally given at 10, 30 and 100 mg/kg to the rats at 11 am. Immediately after dosing until 24 hours later, urine was collected. The volume of urine was measured. Then, urine glucose concentration was assayed by glucose oxidase method, to calculate the glucose excretion into urine per individual per day. As a positive control, 3-(5-benzo[b]furanyl)-2'-(6-o-methoxycarbonyl-β-D-glucopyranosyldxy)-6'-hydroxy-4'-methylpropiophenone [under a different name of 3-(benzo[b]furan-5-yl)-2', 6'-dihydroxy-4'-methylpropiophenone 2'-o-(6-o-methoxycarbonyl-β-D-glucopyranoside)] was used.

Setting [6] is: nateglinide 50 mg/kg, inhibitor B 30 mg/kg, or both, p.o., vs vehicle group (Fig. 2).
The mark [7] stands for this setting: nateglinide 80 mg/kg or inhibitor B 80 mg/kg p.o., vs lower dose (Fig. 2).
[8] abbreviates: Dose 100 mg/kg p.o. in olive oil.
Where [9] appears, read: glibenclamide 1 mg/kg, inhibitor A 30 mg/kg, or both, p.o., vs vehicle group (Fig. 1).

As for `CC(C)[C@H]1CC[C@H](C(=O)N[C@H](Cc2ccccc2)C(=O)O)CC1` [nateglinide], in experiment [1], the “Blood glucose level 30 minutes after loading” value turned out to be 259 ± 18 mg/dL, the “Blood glucose level 120 minutes after loading” value was found to be 144 ± 20 mg/dL and the “Blood glucose level before loading” value was 158 ± 12 mg/dL. For the same molecule, in experiment [2] (nateglinide 50 mg/kg p.o., vs vehicle-dosed group (Fig. 2)), the “blood glucose level 120 minutes after glucose loading and thereafter” value is “did not lower the blood glucose level”. In experiment [2] (setting [6]), the “hyperglycemia / blood glucose level 30 minutes after glucose loading” value was “more highly suppressed hyperglycemia” and the “hyperglycemia / blood glucose level 60 minutes after glucose loading” value was “more highly suppressed hyperglycemia”. The “pattern of glycemic suppression at increased dose” value (from here on “pattern … at increased dose”) in experiment [2] (setting [7]) is given as “did not change”.
`CCc1ccc(Cc2c(O[C@@H]3O[C@H](COC(=O)OC)[C@@H](O)[C@H](O)[C@H]3O)nn(Cc3ccccc3)c2C(F)(F)F)cc1` [Compound of Production Example 4-A, 4'-[(4'-ethylphenyl)methyl]-1'-benzyl-5'-trifluoromethyl-1H-pyrazole-3'-o-(6-carbomethoxy)-β-D-glucopyranoside]: in experiment [3] (setting [8]), the “Excreted urine sugar” value is 27 mg.
As to `COc1ccc(Cl)cc1C(=O)NCCc1ccc(S(=O)(=O)NC(=O)NC2CCCCC2)cc1` [glibenclamide], the “blood glucose level 120 minutes after glucose loading and thereafter” value in experiment [2] (setting [9]) is reported as “lowered blood glucose”. Besides, the “hyperglycemia / blood glucose level immediately after glucose loading (30 minutes)” value in experiment [2] (setting [9]) is reported as “did not suppress hyperglycemia”. Further, the “pattern … at increased dose” value in experiment [2] (glibenclamide 2 mg/kg or inhibitor A 60 mg/kg p.o., vs lower dose (Fig. 1)) is reported as “did not change”. The blood glucose level entry is reported as “no difference was observed from the vehicle-dosed group” in experiment [4] (day 25, glibenclamide 3 mg/kg, inhibitor A 30 mg/kg, or both) and “did not produce any difference in blood glucose level from the vehicle-dosed group” in experiment [4] (day 25, glibenclamide 6 mg/kg).
In the case of `COC(=O)OC[C@H]1O[C@@H](Oc2cc(C)cc(O)c2C(=O)CCc2ccc3occc3c2)[C@H](O)[C@@H](O)[C@@H]1O` [3-(5-benzo[b]furanyl)-2'-(6-o-methoxycarbonyl-β-D-glucopyranosyloxy)-6'-hydroxy-4'-methylpropiophenone], in experiment [1] (db/db mice given inhibitor B 80 mg/kg twice daily long-term, compared with vehicle-dosed and nateglinide-dosed groups), the “hyperglycemia due to glucose loading, 30 minutes after loading with glucose and nateglinide” value is on record as “greatly suppressed hyperglycemia”. Further, in experiment [1], the “Blood glucose level 30 minutes after loading” value is 172 ± 14 mg/dL, the “Blood glucose level 120 minutes after loading” value is 103 ± 5 mg/dL and the “Blood glucose level before loading” value worked out at 131 ± 6 mg/dL. The “Excreted urine sugar” value in experiment [5] (Dose 10 mg/kg) is given as 2 mg. Besides, the “Excreted urine sugar” value in experiment [5] (Dose 30 mg/kg) came to 78 mg. Moreover, the “Excreted urine sugar” value in experiment [5] (Dose 100 mg/kg) is 274 mg. Besides, the “blood glucose level 180 minutes after glucose loading and thereafter” value in experiment [2] (inhibitor B 30 mg/kg alone or with nateglinide 50 mg/kg, p.o., vs vehicle group (Fig. 2)) is “lower than that in the vehicle-dosed group”. Moreover, the “hyperglycemia / blood glucose level 30 minutes after glucose loading” value in experiment [2] (setting [6]) is on record as “not reduced as greatly as in the case of nateglinide”. Moreover, the “pattern … at increased dose” value in experiment [2] (setting [7]) is listed as “pattern of glycemic suppression was also observed”.
As for `COC(=O)OC[C@H]1O[C@@H](Oc2nn(C(C)C)c(C)c2Cc2ccc(OC)c(F)c2)[C@H](O)[C@@H](O)[C@@H]1O` [Compound of Production Example 10-A, 4'-[(3'-fluoro-4'-methoxyphenyl)methyl]-1'-isopropyl-5'-methyl-1H-pyrazole-3'-o-(6-carbomethoxy)-β-D-glucopyranoside], the “Excreted urine sugar” value in experiment [3] (setting [8]) is 734 mg.
On the same count and under the same terms, the same measure for `COC(=O)OC[C@H]1O[C@@H](Oc2nn(C(C)C)c(C)c2Cc2ccc(C)c(F)c2)[C@H](O)[C@@H](O)[C@@H]1O` [Compound of Production Example 14-A, 4'-[(3'-fluoro-4'-methylphenyl)methyl]-1'-isopropyl-5'-methyl-1H-pyrazole-3'-o-(6-carbomethoxy)-β-D-glucopyranoside]: 918 mg; for `Cc1[nH]nc(O[C@@H]2O[C@H](CO)[C@@H](O)[C@H](O)[C@H]2O)c1Cc1ccc(OC(C)C)cc1` [4-[(4-isopropoxyphenyl)methyl)-5-methyl-1H-pyrazole-3-o-β-D-glucopyranoside]: 14 mg.
The same measure, in the same setting: to `CCc1ccc(Cc2c(O[C@@H]3O[C@H](COC(=O)OC)[C@@H](O)[C@H](O)[C@H]3O)nn(Cc3ccc(OC)cc3)c2C(F)(F)F)cc1` [Compound of Production Example 6-A, 4'-[(4'-ethylphenyl)methyl]-1'-[(4'-methoxyphenyl)methyl]-5'-trifluoromethyl-1H-pyrazole-3'-o-(6-carbomethoxy)-β-D-glucopyranoside] belongs 59 mg.
As to `CCc1ccc(Cc2c(O[C@@H]3O[C@H](COC(=O)OC)[C@@H](O)[C@H](O)[C@H]3O)nn(C(C)C)c2C)cc1` [Compound of Production Example 16-A, 4'-[(4-ethylphenyl)methyl]-1'-isopropyl-5'-methyl-1H-pyrazole-3'-o-(6-carbomethoxy)-β-D-glucopyranoside], the “Excreted urine sugar” value in experiment [3] (Dose 3 mg/kg p.o. in olive oil) is listed as 28 mg; in experiment [3] (Dose 10 mg/kg p.o. in olive oil), 263 mg; in experiment [3] (Dose 30 mg/kg p.o. in olive oil) it was 294 mg; in experiment [3] (setting [8]), 598 mg.
For `CCc1ccc(Cc2c(O[C@@H]3O[C@H](COC(=O)OC)[C@@H](O)[C@H](O)[C@H]3O)nn(-c3ccccc3)c2C(F)(F)F)cc1` [Compound of Production Example 8-A, 4'-[(4'-ethylphenyl)methyl]-1'-phenyl-5'-trifluoromethyl-1H-pyrazole-3'-o-(6-carbomethoxy)-β-D-glucopyranoside], the “Excreted urine sugar” value in experiment [3] (setting [8]) is 4.1 mg.
Consider `CCc1ccc(Cc2c(O[C@@H]3O[C@H](COC(=O)OC)[C@@H](O)[C@H](O)[C@H]3O)nn(C(CF)CF)c2C(F)(F)F)cc1` [Compound of Production Example 2B, 4'-[(4'-ethylphenyl)methyl]-1'-(1',3'-difluoro-2'-propyl) -5'-(trifluoromethyl) -1H-pyrazole-3'-o-(6-o-methoxycarbonyl-β-D-glucopyranoside)], for which the “Excreted urine sugar” value is listed as 136 mg in experiment [5] (Dose 10 mg/kg), 272 mg in experiment [5] (Dose 30 mg/kg) and 524 mg in experiment [5] (Dose 100 mg/kg).

These data come from patent EP1500403A1, “PREVENTIVE/REMEDY FOR DIABETES” (Ajinomoto Co., Inc., priority 2002, dated 2003).
